Where no end group is shown, it is not given here.
Tests used:
[1] = tested on: K. pneumoniae 1746; settings: carbapenemase VIM (class B), rectal swab; microdilution, 37 °C, 20 h; N/D = no antibacterial activity detected
Protocol: (§1) Each strain was grown in Mueller Hinton Broth (MH Broth), and 5 × 10^5 CFU/mL was used to evaluate antibacterial activity. Clinical carbapenem-resistant K. pneumoniae and E. coli isolates were collected at the AOU of Virology and Microbiology of the University of Campania “Luigi Vanvitelli”.
(§2) The antimicrobial activity of Hylin-a1, AR-23, and RV-23 was investigated using a microdilution assay as reported by the National Committee on Clinical Laboratory Standards (NCCLS) guidelines against a broad spectrum of Gram-negative bacteria. […] In 96-well, the standardized bacterial inoculum (5 × 10^5 colony forming units, CFU/mL) was inoculated together with AMPs and incubated at 37 °C for 20 h. After the time of incubation, optical density (OD) was measured at TECAN, and data were expressed as a percentage of inhibition. In addition to assessing the MIC values, the bactericidal effect was also studied as reported elsewhere.

[2] = tested on: K. pneumoniae 1711; settings: carbapenemase KPC (class A), rectal swab, N/D = no antibacterial activity detected; for MIC: microdilution, 37 °C, 20 h
Protocol: as §1, §2

[3] = tested on: E. coli 1441; settings: carbapenemase KPC (class A), rectal swab, N/D = no antibacterial activity detected; for MIC: microdilution, 37 °C, 20 h
Protocol: as §1, §2

[4] = tested on: E. coli 1376; settings: carbapenemase NDM (class B), rectal swab, N/D = no antibacterial activity detected; for MIC: microdilution, 37 °C, 20 h
Protocol: as §1, §2

[5] = tested on: E. coli 716; settings: carbapenemases IMP1, VIM, NDM (class B), urine, N/D = no antibacterial activity detected; for MIC: microdilution, 37 °C, 20 h
Protocol: as §1, §2

[6] = tested on: K. pneumoniae 1745; settings: carbapenemase KPC (class A), ulcer, N/D = no antibacterial activity detected; for MIC: microdilution, 37 °C, 20 h
Protocol: as §1, §2

[7] = tested on: K. pneumoniae ATCC 10031; experiment: Biofilm initial cell attachment assay; format: cell-based, Klebsiella pneumoniae; settings: 2 h; for concentration of total reduction in biofilm attachment (antibiofilm MIC): initial cell attachment, 37 °C, peptides 50-1.56 μM, absorbance 570 nm
Protocol: We also investigated the ability of peptides to interfere with biofilm using three different assays (refer to the Section 4) against K. pneumonia and E. coli.
Figure 3 The effect of Hylin-a1, AR-23, and RV-23 on the initial cell attachment of biofilm formation. […] Statistical analysis was performed by One-way ANOVA followed by Dunnett’s multiple comparisons test.
The anti-biofilm activity of peptides was evaluated against E. coli and K. pneumoniae ATCC strains. Bacterial cultures were grown overnight, then diluted to an OD600 of 0.1 in MH broth supplemented with 1% (v/v) glucose. A 100 μL aliquot of the bacterial suspension was combined with an equal volume of peptides at non-cytotoxic concentrations in a 96-well plate and incubated at 37 °C for 2 h. Following incubation, non-adherent planktonic cells were removed by washing with phosphate-buffered saline (PBS, Microtech), and adherent cells were incubated with MTT solution for 3 h at 37 °C. Additionally, adherent cells were collected, resuspended in PBS, and plated on agar for viable cell counting. Serial dilutions were performed for each peptide, and CFU/mL were determined after 20 h of incubation at 37 °C (Figure S2). Absorbance was measured at 570 nm to evaluate adhesion percentage.

[8] = tested on: E. coli ATCC 25992; settings: for MBC: colonies' growth on agar plates after microdilution, N/D = not detected antibacterial activity; for MIC: microdilution (NCCLS), MH broth, 5 × 10^5 CFU/mL, 37 °C, 20 h, absorbance, 50 to 1.56 μM
Protocol: (§3) The three peptides were tested for their antibacterial activity. […] As described in the Materials and Methods section, the antibacterial effect of peptides was investigated using a microdilution assay. Each concentration of AMPs was inoculated with bacteria in 96-well plates and incubated at 37 °C for 20 h. After that, MIC values were determined by analyzing absorbance and expressed as a percentage of inhibition. MBC was assessed by observing the colonies’ growth on agar plates, as described elsewhere.
as §1, §2

[9] = tested on: K. pneumoniae ATCC 10031; settings: for MBC: colonies' growth on agar plates after microdilution, N/D = not detected antibacterial activity; for MIC: microdilution (NCCLS), MH broth, 5 × 10^5 CFU/mL, 37 °C, 20 h, absorbance, 50 to 1.56 μM
Protocol: as §3, §1, §2

[10] = tested on: K. pneumoniae 311; settings: carbapenemase OXA-48 (class D), rectal swab, N/D = no antibacterial activity detected
Protocol: as §1, §2

[11] = tested on: K. pneumoniae; experiment: Checkerboard assay with meropenem; settings: checkerboard, 20 h, OD600
[12] = tested on: E. coli; settings: against E. coli; ref 63 (Zhang et al.); cited from earlier work
Description: The activity of AR-23 and RV-23 against Gram-negative bacteria has been briefly described in previous studies. Zhang et al. evaluated the antibacterial effects of both peptides against E. coli. […] The authors attributed this enhanced activity to RV-23’s lower hydrophobicity and higher hydrophobic moment, factors strongly associated with reduced cytotoxicity and greater selectivity compared to AR-23. In contrast, the antibacteri ...

Row | Substance | MIC [1] [µM] | MBC [2] [µM] | MIC [2] [µM] | MIC [3] [µM] | MIC [4] [µM] | MIC [5] [µM] | MBC [6] [µM] | MIC [6] [µM] | concentration of total reduction in biofilm attachment (antibiofilm MIC) [7] [µM] | MBC [8] [µM] | MIC [8] [µM] | MBC [9] [µM] | MIC [9] [µM] | further results
1 | IFGAILPLALGALKNLIK-NH2 [Hylin-a1] | 25 | 50 | 25 | 50 | 25 | 25 | 50 | 50 | 50 | 25 | 25 | 6.25 | 6.25 | reduction of biofilm (initial attachment) ([7]; at 50 μM): 80–100%
2 | RIGVLLARLPKLFSLFKLMGKKV-NH2 [RV-23] | 12.5 | 12.5 | 12.5 | 6.25 | 6.25 | 25 | 25 | 12.5 | 50 | 12.5 | 12.5 | 12.5 | 6.25 | MBC [3]: 12.5 µM; MBC [10]: 50 µM; MIC ([10]; microdilution, 37 °C, 20 h): 50 µM; MBC [4]: 6.25 µM; MBC [5]: 25 µM; MIC of peptide in combination with meropenem [11]: 3.125 µM; MIC [12]: 3.33 µM
